{"source": "ChEMBL document CHEMBL1201862", "about": "“PubChem BioAssay data set” (2004)", "key": {"[1]": {"biological_target": "Voltage-gated N-type calcium channel alpha-1B subunit/Amyloid beta A4 precursor protein-binding family A member 1 (Homo sapiens, UniProt Q00975+Q02410)", "sequence (Q00975 whole entry)": "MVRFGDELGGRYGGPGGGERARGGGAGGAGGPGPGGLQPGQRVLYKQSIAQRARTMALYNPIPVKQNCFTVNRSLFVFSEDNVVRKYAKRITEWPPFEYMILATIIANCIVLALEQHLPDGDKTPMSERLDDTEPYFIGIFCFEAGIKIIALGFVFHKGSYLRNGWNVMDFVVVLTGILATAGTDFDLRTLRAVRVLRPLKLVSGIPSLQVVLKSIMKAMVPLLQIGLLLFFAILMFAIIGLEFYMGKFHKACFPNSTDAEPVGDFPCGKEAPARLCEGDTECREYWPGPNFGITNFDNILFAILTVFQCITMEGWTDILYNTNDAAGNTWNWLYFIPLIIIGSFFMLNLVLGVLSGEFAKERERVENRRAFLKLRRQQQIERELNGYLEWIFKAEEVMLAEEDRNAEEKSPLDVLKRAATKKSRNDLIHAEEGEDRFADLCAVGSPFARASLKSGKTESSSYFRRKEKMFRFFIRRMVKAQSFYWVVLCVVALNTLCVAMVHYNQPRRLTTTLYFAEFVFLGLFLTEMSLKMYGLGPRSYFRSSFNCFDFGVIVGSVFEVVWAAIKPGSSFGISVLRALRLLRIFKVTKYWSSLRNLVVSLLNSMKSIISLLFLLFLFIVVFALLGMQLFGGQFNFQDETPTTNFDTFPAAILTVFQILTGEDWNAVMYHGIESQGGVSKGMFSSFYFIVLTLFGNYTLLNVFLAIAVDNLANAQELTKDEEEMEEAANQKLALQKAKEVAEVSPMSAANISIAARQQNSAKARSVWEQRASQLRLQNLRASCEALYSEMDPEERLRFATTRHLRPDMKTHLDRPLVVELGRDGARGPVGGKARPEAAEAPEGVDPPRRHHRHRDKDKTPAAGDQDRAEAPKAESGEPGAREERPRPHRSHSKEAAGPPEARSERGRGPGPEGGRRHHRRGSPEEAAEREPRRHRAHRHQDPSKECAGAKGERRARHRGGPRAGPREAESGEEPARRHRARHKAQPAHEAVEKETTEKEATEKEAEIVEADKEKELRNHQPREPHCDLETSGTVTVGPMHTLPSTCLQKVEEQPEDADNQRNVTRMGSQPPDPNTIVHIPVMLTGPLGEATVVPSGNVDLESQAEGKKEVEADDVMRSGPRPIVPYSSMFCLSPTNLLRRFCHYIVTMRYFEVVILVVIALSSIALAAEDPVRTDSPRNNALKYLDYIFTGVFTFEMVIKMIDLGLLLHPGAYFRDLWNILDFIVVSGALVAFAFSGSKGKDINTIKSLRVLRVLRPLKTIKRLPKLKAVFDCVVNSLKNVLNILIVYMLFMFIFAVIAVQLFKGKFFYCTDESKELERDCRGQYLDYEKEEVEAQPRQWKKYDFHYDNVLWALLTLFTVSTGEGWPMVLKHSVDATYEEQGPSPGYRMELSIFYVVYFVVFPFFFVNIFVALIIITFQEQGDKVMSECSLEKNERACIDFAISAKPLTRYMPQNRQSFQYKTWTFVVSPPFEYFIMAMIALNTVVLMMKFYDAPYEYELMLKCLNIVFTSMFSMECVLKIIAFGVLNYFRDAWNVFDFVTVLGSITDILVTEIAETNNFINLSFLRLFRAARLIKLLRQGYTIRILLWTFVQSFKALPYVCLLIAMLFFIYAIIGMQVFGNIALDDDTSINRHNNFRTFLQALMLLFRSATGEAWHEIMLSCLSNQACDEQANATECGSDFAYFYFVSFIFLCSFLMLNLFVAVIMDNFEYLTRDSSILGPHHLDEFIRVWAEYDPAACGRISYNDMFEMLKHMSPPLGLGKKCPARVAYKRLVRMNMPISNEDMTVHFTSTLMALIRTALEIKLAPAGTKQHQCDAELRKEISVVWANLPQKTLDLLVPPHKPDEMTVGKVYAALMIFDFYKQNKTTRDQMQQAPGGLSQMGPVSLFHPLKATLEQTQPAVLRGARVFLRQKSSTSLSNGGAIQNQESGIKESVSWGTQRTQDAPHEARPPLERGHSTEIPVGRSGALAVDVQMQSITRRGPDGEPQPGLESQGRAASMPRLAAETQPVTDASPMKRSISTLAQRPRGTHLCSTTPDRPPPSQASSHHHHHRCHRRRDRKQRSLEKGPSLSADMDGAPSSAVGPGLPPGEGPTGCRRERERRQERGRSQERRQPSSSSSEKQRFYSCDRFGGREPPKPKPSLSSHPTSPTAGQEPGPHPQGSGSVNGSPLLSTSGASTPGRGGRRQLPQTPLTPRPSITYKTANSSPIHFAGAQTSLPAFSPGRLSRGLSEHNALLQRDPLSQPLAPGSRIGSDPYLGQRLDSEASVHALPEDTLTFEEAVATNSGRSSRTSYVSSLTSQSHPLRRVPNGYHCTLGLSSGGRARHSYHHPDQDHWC", "sequence (Q02410 whole entry)": "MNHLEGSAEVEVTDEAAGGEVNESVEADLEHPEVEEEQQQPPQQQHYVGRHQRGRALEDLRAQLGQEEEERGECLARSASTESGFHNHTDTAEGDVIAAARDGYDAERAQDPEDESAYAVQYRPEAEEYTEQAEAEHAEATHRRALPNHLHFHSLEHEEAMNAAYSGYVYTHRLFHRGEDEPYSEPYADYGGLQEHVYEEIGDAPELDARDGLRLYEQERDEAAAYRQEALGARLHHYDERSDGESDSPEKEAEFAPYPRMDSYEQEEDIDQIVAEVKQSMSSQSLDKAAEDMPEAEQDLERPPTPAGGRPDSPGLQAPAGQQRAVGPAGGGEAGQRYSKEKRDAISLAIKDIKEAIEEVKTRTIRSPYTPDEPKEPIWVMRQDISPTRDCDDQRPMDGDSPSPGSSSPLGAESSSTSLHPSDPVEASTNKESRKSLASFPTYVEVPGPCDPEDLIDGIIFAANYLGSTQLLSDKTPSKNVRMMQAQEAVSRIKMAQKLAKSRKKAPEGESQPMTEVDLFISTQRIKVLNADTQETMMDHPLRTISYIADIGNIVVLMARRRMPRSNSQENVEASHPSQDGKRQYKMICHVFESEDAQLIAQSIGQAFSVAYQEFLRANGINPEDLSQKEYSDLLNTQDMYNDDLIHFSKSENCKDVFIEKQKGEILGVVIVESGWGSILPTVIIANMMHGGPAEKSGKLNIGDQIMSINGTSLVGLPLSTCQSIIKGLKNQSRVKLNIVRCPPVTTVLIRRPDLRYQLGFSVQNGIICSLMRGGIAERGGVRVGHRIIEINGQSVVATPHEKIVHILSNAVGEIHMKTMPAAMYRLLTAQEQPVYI", "assay": "disruptors of Mint-PDZ/N-type channel peptide interaction – biochemical, HTRF, set 2, SAR follow-up (AID 434980)", "format": "functional"}, "Beta-galactosidase": {"biological_target": "Beta-galactosidase (Escherichia coli, UniProt Q8VNN2)", "sequence (Q8VNN2 whole entry)": "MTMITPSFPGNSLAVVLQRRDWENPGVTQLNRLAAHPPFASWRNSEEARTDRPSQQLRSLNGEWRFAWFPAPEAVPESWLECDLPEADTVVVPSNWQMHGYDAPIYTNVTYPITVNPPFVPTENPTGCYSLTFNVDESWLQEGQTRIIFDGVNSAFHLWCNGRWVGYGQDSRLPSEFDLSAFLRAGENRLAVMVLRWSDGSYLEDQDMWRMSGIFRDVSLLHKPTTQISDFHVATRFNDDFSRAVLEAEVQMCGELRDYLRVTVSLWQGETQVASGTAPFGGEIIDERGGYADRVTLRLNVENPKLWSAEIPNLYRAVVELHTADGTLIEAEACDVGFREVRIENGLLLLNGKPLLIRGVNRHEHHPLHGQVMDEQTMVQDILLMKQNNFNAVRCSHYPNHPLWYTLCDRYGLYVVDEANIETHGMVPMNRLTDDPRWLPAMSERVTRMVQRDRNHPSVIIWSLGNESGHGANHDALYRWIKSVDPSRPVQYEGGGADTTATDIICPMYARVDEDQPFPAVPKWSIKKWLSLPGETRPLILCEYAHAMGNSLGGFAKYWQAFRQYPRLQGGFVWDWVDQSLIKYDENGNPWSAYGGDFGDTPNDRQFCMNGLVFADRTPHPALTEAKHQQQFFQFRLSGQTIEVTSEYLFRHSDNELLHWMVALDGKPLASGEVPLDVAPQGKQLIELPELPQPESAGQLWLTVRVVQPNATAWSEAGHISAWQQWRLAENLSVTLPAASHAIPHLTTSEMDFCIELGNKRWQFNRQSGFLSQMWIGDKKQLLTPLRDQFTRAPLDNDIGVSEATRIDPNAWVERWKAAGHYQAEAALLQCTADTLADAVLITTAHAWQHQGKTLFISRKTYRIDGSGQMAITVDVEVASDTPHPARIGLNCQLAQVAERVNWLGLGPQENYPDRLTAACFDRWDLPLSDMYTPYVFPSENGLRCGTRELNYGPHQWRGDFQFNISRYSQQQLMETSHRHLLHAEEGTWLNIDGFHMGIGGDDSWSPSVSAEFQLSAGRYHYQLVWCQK", "assay": "detection-enzyme interference by beta-gal modulators – biochemical, E. coli enzyme, set 3, artefact control for CCR6 antagonist project, dose response (AID 504712)", "format": "functional"}, "[2]": {"biological_target": "Melanin-concentrating hormone receptor 1 (Homo sapiens, UniProt Q99705)", "sequence (Q99705 whole entry)": "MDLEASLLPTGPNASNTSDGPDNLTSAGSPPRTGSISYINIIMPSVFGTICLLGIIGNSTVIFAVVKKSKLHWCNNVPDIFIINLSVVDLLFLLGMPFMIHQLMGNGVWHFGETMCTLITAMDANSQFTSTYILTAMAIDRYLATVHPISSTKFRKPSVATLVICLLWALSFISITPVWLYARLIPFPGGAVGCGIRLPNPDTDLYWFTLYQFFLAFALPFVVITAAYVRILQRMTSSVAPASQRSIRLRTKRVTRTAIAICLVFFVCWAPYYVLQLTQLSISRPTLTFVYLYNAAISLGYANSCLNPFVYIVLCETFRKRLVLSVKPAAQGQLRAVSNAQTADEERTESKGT", "assay": "Late-stage fluorescence-based counterscreen for antagonists of the G-protein coupled receptor 7 (GPR7): cell-based dose response assay to identify antagonists of the melanin-concentrating hormone receptor 1 (MCHR1). [Related pubchem assays (depositor defined):AID1861, AID1880, AID1952, AID2148, AID2251, AID2257, AID485339]", "format": "functional"}, "Streptokinase A": {"biological_target": "T1, Streptokinase A (Streptococcus pyogenes serotype M1, UniProt P10520)", "T1 sequence (P10520 whole entry)": "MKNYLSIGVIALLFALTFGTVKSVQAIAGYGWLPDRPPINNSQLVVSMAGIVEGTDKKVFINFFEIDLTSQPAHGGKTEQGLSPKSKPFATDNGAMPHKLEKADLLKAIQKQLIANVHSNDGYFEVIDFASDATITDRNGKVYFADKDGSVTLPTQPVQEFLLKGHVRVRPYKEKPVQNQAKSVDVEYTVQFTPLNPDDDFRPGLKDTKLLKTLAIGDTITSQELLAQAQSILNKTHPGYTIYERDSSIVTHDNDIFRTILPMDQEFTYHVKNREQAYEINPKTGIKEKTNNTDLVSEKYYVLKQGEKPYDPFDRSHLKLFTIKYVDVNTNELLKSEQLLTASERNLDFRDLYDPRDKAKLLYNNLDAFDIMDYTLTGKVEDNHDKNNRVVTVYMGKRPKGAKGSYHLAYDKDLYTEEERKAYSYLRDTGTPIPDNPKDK", "assay": "viability-normalized secreted streptokinase activity reduction – plasminogen activation absorbance, OD405, dose response (AID 1914);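 note: secreted streptokinase activity via plasminogen activation per viability signal from cell pellet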", "format": "functional, Streptococcus pyogenes M1 GAS"}, "Nonstructural protein 1": {"biological_target": "Nonstructural protein 1 (Influenza A virus, UniProt Q194T2)", "sequence (Q194T2 whole entry)": "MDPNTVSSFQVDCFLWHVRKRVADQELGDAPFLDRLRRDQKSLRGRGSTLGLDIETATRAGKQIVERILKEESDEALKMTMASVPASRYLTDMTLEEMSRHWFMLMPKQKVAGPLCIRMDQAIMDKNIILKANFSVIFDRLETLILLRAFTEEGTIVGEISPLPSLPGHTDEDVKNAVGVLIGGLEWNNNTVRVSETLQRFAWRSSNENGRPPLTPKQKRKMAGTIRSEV", "format": "functional, Influenza A virus (A/California/07/2009(H1N1))"}, "[3]": {"tested_on": "Streptococcus sp. 'group A'", "assay": "Streptococcus pyogenes SK(-)GAS viability under kanamycin – luminescence, BacTiterGlo, confirmation, counter-screen for streptokinase expression inhibitor project, dose response (AID 1900)", "format": "functional, organism-based"}, "NS3": {"biological_target": "NS3 (Hepatitis C virus, UniProt A3EZJ3)", "assay": "PubChem AID 2173", "design": "species or system Hepacivirus hominis"}, "Streptococcus": {"tested_on": "Streptococcus", "assay": "GAS UMAA2166 growth inhibition – luminescence, BacTiterGlo, counter-screen for streptokinase expression inhibitor project, dose response (AID 1915);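 note: potency for reduction of bacterial viability or growth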", "format": "functional, organism-based"}, "Aspartyl aminopeptidase": {"biological_target": "Aspartyl aminopeptidase (Plasmodium falciparum 3D7, UniProt Q8I2J3)"}, "Procathepsin L": {"biological_target": "Procathepsin L (Homo sapiens, UniProt P07711)"}, "[4]": {"biological_target": "T2, Rac GTPase-activating protein 1 (Homo sapiens, UniProt Q9H0H5)", "T2 sequence (Q9H0H5 whole entry)": "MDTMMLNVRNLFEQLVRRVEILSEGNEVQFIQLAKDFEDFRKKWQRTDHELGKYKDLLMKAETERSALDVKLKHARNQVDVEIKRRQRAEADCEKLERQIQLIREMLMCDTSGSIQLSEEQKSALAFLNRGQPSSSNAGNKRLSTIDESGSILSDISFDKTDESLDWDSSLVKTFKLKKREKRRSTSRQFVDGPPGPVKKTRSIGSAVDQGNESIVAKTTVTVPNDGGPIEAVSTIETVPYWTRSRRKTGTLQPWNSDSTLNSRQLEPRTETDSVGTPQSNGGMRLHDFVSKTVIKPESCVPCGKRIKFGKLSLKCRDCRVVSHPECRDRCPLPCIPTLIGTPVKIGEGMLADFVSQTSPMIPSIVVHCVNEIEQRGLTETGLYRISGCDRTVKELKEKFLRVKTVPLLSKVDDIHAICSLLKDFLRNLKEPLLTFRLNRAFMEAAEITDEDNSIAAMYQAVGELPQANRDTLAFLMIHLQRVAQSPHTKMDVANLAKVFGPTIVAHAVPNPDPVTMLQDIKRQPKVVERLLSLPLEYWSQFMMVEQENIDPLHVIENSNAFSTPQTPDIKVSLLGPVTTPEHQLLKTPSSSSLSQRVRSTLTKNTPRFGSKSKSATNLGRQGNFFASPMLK", "assay": "blockers of MgcRacGAP-driven Rac1 GTP hydrolysis – biochemical, ADP Hunter fluorescence, primary and confirmatory, confirmation (AID 624330)", "format": "functional"}}, "note": "Active and inactive are the calls of the source."}
{"smiles": "CC(C)(C)CCNC(=O)c1cc(-c2ccco2)nc2ccccc12", "values": [{"measurement": "IC50", "setting": "[1]", "result": "> 56.8 µM (inactive)"}]}
{"smiles": "COCC/N=c1\\scc(-c2ccc3c(c2)NC(=O)CO3)n1/N=C(\\C)c1ccc(O)cc1", "values": [{"measurement": "IC50", "setting": "Beta-galactosidase", "result": "> 66.6 µM (inactive)"}]}
{"smiles": "Cc1ccccc1CN1CCCCC1C(=O)N1CCN(c2ccc([N+](=O)[O-])cc2)CC1", "note": "(stereo unspecified)", "values": [{"measurement": "IC50", "setting": "[2]", "result": "5.8 µM (active)"}]}
{"smiles": "COc1ccc(/C=N\\NC(=O)c2cc(O)c(O)c(O)c2)cc1COc1ccc(C(=O)OCC(C)C)cc1", "values": [{"measurement": "EC50", "setting": "Streptokinase A", "result": "> 150 µM (not active)"}, {"measurement": "IC50", "setting": "Nonstructural protein 1", "result": "78.6 µM (active)"}, {"measurement": "EC50", "setting": "[3]", "result": "6.26 µM (active)"}, {"measurement": "IC50", "setting": "NS3", "result": "4.44 µM (active)"}, {"measurement": "EC50", "setting": "Streptococcus", "result": "6.69 µM (active)"}]}
{"smiles": "O=C(/C=C/c1ccc(O)c(O)c1)NC(=O)c1ccccc1O", "values": [{"measurement": "IC50", "setting": "Aspartyl aminopeptidase", "result": "1.47 µM (active)"}, {"measurement": "IC50", "setting": "Procathepsin L", "result": "> 59.6 µM (not active)"}, {"measurement": "IC50", "setting": "[4]", "result": "20.2 µM (active)"}]}
